Data reported in patent US9587005B2 (priority 2010, dated 2017).
pEC50: −log10 of the molar value. Like-named read-outs stand apart in the source and are kept apart here. *1 amine or outer side, *2 acyl side, *3 side chain or, on linkers, in order; H or OH if unused. Where a SMILES comes first, the peptide text is derived from it. Where no end group is shown, it is not given here. Side-chain parts run from the residue outwards. [ ]: non-standard residue; d: D form. The star is where a group is joined. Phe(4-NH2) = Nc1ccc(C[C@H](N)C(=O)O)cc1; γGlu = O=C(O)[C@H](CCC(=O)[*:2])N[*:1]; X6 = CCCCCCCCCCCCCCCCC(CC(=O)*)C(=O)O; X3 = CCCCCCCCCCCCCCC(CC(=O)*)C(=O)O; Palmitoyl = CCCCCCCCCCCCCCCC(=O)*; Aib = CC(C)(N)C(=O)O

How the values were obtained:
Format in all cases: cell-based
GLP-1 receptor = biological target: T1, GLP-1 receptor (Homo sapiens, UniProt P43220); assay: cAMP induction, firefly luciferase reporter assay in HEK293 cells co-transfected with GLP-1 receptor; conditions: for EC50: EC50 (nM) at GLP-1 receptor
T1 construct: expressed in transfected cells; host or cells: HEK293
From the text: (§1) This example describes an exemplary method of testing the biological activity of the peptides of the present disclosures, which method involves assaying cAMP synthesis.

GIP receptor = biological target: T2, GIP receptor (Homo sapiens, UniProt P48546); assay: cAMP induction, firefly luciferase reporter assay in HEK293 cells co-transfected with GIP receptor
T2 sequence (P48546 22-466): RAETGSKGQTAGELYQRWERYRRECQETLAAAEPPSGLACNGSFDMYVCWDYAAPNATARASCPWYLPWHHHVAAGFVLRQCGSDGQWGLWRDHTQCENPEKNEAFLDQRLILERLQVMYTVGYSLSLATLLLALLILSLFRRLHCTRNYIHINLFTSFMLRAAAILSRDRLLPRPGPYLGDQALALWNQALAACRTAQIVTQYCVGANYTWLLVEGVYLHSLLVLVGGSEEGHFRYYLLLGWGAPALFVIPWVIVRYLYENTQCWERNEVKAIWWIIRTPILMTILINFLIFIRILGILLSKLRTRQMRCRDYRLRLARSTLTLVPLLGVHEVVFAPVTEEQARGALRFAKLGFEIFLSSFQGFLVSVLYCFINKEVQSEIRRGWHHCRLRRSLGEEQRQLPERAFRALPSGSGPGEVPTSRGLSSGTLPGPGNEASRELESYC

glucagon receptor = biological target: T3, glucagon receptor (Homo sapiens, UniProt P47871); assay: cAMP induction, firefly luciferase reporter assay in HEK293 cells co-transfected with glucagon receptor
T3 construct: expressed in transfected cells; host or cells: HEK293
From the text: as §1

[1] = GLP-1 Receptor EC50, Table 10, Example 16
[2] = Table 3, relative to the activity of the native hormone

T1 sequence (P43220 24-463): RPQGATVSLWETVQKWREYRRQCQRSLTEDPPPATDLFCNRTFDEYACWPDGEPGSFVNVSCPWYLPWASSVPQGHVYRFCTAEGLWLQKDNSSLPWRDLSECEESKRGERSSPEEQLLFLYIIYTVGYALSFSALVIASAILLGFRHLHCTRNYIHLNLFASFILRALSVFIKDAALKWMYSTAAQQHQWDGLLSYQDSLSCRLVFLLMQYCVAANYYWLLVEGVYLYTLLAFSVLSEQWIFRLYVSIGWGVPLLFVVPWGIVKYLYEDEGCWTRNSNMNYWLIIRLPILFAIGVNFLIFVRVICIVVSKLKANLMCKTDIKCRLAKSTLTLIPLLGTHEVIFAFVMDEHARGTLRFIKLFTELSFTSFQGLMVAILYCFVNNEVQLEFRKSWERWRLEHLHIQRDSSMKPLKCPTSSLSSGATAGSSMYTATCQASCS
T3 sequence (P47871 26-477): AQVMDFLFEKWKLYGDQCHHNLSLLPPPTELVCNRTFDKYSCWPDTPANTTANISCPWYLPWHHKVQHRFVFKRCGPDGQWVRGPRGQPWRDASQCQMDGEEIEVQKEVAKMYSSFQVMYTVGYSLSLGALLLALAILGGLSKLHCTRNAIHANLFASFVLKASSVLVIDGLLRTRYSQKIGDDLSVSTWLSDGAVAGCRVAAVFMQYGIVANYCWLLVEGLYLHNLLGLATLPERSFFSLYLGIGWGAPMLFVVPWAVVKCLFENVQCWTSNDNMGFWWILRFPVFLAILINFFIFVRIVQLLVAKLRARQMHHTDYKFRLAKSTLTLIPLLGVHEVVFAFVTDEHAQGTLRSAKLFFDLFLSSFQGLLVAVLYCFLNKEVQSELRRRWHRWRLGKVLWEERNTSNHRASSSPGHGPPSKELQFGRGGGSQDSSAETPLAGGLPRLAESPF

Question: `CCCCCCCCCCCCCCCCC(CC(=O)Nc1ccc(C[C@H](NC(=O)[C@H](CC(=O)O)NC(=O)[C@H](CO)NC(=O)[C@@H](NC(=O)[C@H](Cc2ccccc2)NC(=O)[C@@H](NC(=O)CNC(=O)[C@H](CCC(=O)O)NC(=O)C(C)(C)NC(=O)[C@@H](N)Cc2ccc(O)cc2)[C@@H](C)O)[C@@H](C)O)C(=O)N[C@@H](CO)C(=O)N[C@H](C(=O)N[C@@H](Cc2ccc(O)cc2)C(=O)N[C@@H](CC(C)C)C(=O)N[C@@H](CC(=O)O)C(=O)N[C@@H](CCCCN)C(=O)N[C@@H](CCC(N)=O)C(=O)N[C@@H](C)C(=O)N[C@@H](C)C(=O)NC(C)(C)C(=O)N[C@@H](CCC(=O)O)C(=O)N[C@@H](Cc2ccccc2)C(=O)N[C@H](C(=O)N[C@@H](CC(N)=O)C(=O)N[C@@H](Cc2c[nH]c3ccccc23)C(=O)N[C@@H](CC(C)C)C(=O)N[C@@H](CC(C)C)C(=O)N[C@@H](C)C(=O)NCC(=O)NCC(=O)N2CCC[C@H]2C(=O)N[C@@H](CO)C(=O)N[C@@H](CO)C(=O)NCC(=O)N[C@@H](C)C(=O)N2CCC[C@H]2C(=O)N2CCC[C@H]2C(=O)N2CCC[C@H]2C(=O)N[C@@H](CO)C(N)=O)C(C)C)[C@@H](C)CC)cc1)C(=O)O` (stereo partly drawn) [SEQ ID NO: 144] (H-Y[Aib]EGTFTSD[Phe(4-NH2)](X6)SIYLDKQAA[Aib]EFVNWLLAGGPSSGAPPPS-NH2; N-terminus assumed) was tested. Which pEC50 (GLP-1 receptor) did it give?
Answer: The pEC50 was 11.40.

Question: And the pEC50 (GIP receptor)?
Answer: The pEC50 was 10.89.

Question: And the pEC50 (glucagon receptor)?
Answer: The pEC50 was < 9.30.

Question: What does the source list for “H[Aib]QGTFTSDYSKYLDERAAQDFVQWLLDGGPSSGAPPPSK([γGlu-γGlu-Palmitoyl])G-NH2 [SEQ ID NO: 89]”?
Answer: EC50 (GLP-1 receptor; Table 15, Example 23): 0.004 nM; EC50 (GLP-1 receptor; Table 16, Example 24): 0.005 nM; EC50 (GIP receptor; EC50 (nM) at GIP receptor, Table 16, Example 24): 0.028 nM; EC50 (glucagon receptor; EC50 (nM) at glucagon receptor, Table 16, Example 24): 0.006 nM

Question: With “H[Aib]QGTFTSDYSKYLDERAAQDFVQWLLDGGPSSGAPPPSK(X3)G-NH2 [SEQ ID NO: 176]” as the molecule, how does the pEC50 (GLP-1 receptor; [1]) read?
Answer: Its pEC50 is 10.85.

Question: What about the pEC50 (GIP receptor; GIP-1 Receptor EC50, Table 10, Example 16) of the same molecule?
Answer: The pEC50 was 10.00.

Question: And the pEC50 (glucagon receptor)?
Answer: The pEC50 was 10.92.

Question: With `CCCCCCCCCCCCCCCC(=O)N[C@@H](CCC(=O)NCCCC[C@H](NC(=O)[C@H](CCCCN)NC(=O)[C@H](CO)NC(=O)[C@H](Cc1ccc(O)cc1)NC(=O)[C@H](CC(=O)O)NC(=O)[C@H](CO)NC(=O)[C@@H](NC(=O)[C@H](Cc1ccccc1)NC(=O)[C@@H](NC(=O)CNC(=O)[C@H](CCC(N)=O)NC(=O)C(C)(C)NC(=O)[C@@H](N)Cc1c[nH]cn1)[C@@H](C)O)[C@@H](C)O)C(=O)N[C@@H](CC(C)C)C(=O)N[C@@H](CC(=O)O)C(=O)N[C@@H](CCC(=O)O)C(=O)N[C@@H](CCCNC(=N)N)C(=O)N[C@@H](C)C(=O)N[C@@H](C)C(=O)N[C@@H](CCC(N)=O)C(=O)N[C@@H](CC(=O)O)C(=O)N[C@@H](Cc1ccccc1)C(=O)N[C@H](C(=O)N[C@@H](CCC(N)=O)C(=O)N[C@@H](Cc1c[nH]c2ccccc12)C(=O)N[C@@H](CC(C)C)C(=O)N[C@@H](CC(C)C)C(=O)N[C@@H](CC(=O)O)C(=O)NCC(=O)NCC(=O)N1CCC[C@H]1C(=O)N[C@@H](CO)C(=O)N[C@@H](CO)C(=O)NCC(=O)N[C@@H](C)C(=O)N1CCC[C@H]1C(=O)N1CCC[C@H]1C(=O)N1CCC[C@H]1C(=O)N[C@@H](CO)C(N)=O)C(C)C)C(=O)O` [SEQ ID NO: 151] (H-H[Aib]QGTFTSDYSKK([γGlu-Palmitoyl])LDERAAQDFVQWLLDGGPSSGAPPPS-NH2) as the molecule, how does the pEC50 (GLP-1 receptor; [1]) read?
Answer: The pEC50 was 11.40.

Question: And the pEC50 (GIP receptor; Table 10, Example 16, read-out: GIP-1 Receptor EC50)?
Answer: The pEC50 was 9.51.

Question: And the pEC50 (glucagon receptor; Glucagon Receptor EC50, Table 10, Example 16)?
Answer: The pEC50 was 11.10.

Question: Which results are given for “Example 8 peptide: Tyr1, AIB2, Glu16/Lys20 lactam, Leu-Ala-Gly 27-29, GPSSGAPPPS 30-39, or a peptide lacking a lactam [mt-218]”?
Answer: pEC50 (GLP-1 receptor; Table 3, Example 8, read-out: GLP-1R EC50): 9.47; GLP-1R relative activity (GLP-1 receptor; [2]): 7.40%; pEC50 (GIP receptor; Table 3, Example 8, read-out: GIPR EC50): 7.85; GIPR relative activity (GIP receptor; [2]): 0.13%; GR relative activity (glucagon receptor; [2]): 0.70%
